# Legend:
# [1] = tested on: STZ induced diabetic rats; assay: STZ induced diabetic study, fasting blood glucose; assay type: in vivo, Male Wistar rats; conditions: for Fasting Blood Glucose (FBG): Mean ± SD, n=4
# Experimental: (§1) Male Wistar rats weighing between 200 and 250 g were used for the studies. The animals were kept in animal cages with free access to standard pellet food and water at a temperature of 23±2° C., a 12-hour cycle of darkness and light, and a relative humidity of roughly 45 to 65%. The Institutional Animal Ethics Committee (IAEC) authorized the protocol, and the animal experiments were carried out in accordance with it as well as the Indian regulations established by the Committee for the Purpose of Control and Supervision of Experimental Animals (CPCSEA), New Delhi.
# An intraperitoneal injection of streptozotocin (STZ, 55 mg/kg of body weight) was used to cause diabetes. STZ was dissolved in 0.1 mol/L citrate buffer, pH 4.5, and injected into the peritoneal cavity. The fasting blood glucose concentration (FBG) was used for diagnosis of diabetes. Animals having blood glucose level greater than 16.7 mmol/L after 24 hours were deemed diabetic. These animals were further selected for the study.
# The animals (n=4) were divided into four groups. • Group 1: treated with vehicle (distilled water) vehicle control; • Group 2: treated with vehicle (drinking water and STZ) diabetic control; • Group 3: treated with metformin (10 mg/kg body weight/day in drinking water) diabetic test; and • Group 4: treated with Biguanide of Ibuprofen (10 mg/kg body weight/day in drinking water) diabetic test.
# The treatment with metformin and Biguanide of Ibuprofen was given for 14 days. And at the end of treatment fasting blood glucose estimation was performed.
# [2] = tested on: CAR-induced paw edema; assay: CAR-induced paw edema anti-inflammatory study; assay type: in vivo, Male Wistar rats; conditions: for water volume displacement digital plethysmometer (paw volume): 5 mg/kg i.p., Mean ± SD, n=4
# Experimental: as §1
# In the second experiment, the anti-inflammatory effect of Biguanide of Ibuprofen in comparison Ibuprofen was assessed by CAR-induced paw edema. The experimental groups were designed as follows (n=4 per group): • Group 1. Control group: 100 μl saline (i.d.)+saline (i.p.), • Group 2. CAR group: 100 μl CAR (i.d.)+saline (i.p.), • Group 3. Ibuprofen 5 mg/kg group: 100 μl CAR (i.d.)+5 mg/kg Ibuprofen (i.p.), • Group 4. Biguanide of Ibuprofen 5 mg/kg group: 100 μl CAR (i.d.)+5 mg/kg Biguanide of Ibuprofen (i.p.),
# Carrageenan (100 μl) was injected by i.d. route per rat into the right hind paw. The rats were injected with i.p. Ibuprofen (5 mg/kg), and Biguanide of Ibuprofen (5 mg/kg) immediately after CAR injection. Saline was given to the control group. The paw volume was measured plethysmographically at 0 min, 30 min, 60 min, 90 min, 120 min, 180 min and 240 min. The 0th min reading was considered as the initial paw size of the rats. The change in the paw volume in the test groups was compared with the untreated control groups. The reduction in paw volume (mL) with the help of water plethysmometer was recorded.
# [3] = Day 7, 10 mg/kg body weight/day in drinking water
# [4] = Day 14, 10 mg/kg body weight/day in drinking water
SMILES,"Effect on FBG levels in diabetic rats (in words) ([1]; 10 mg/kg/day, 14 days)","Fasting Blood Glucose (FBG) [1, 3]","Fasting Blood Glucose (FBG) [1, 4]","Reduction in FBG compared to metformin (in words) ([1]; both 10 mg/kg/day, 14 days)",water volume displacement digital plethysmometer (paw volume) ([2]; 0 min (initial paw size)),water volume displacement digital plethysmometer (paw volume) ([2]; 30 min after CAR),water volume displacement digital plethysmometer (paw volume) ([2]; 60 min after CAR),water volume displacement digital plethysmometer (paw volume) ([2]; 90 min after CAR),water volume displacement digital plethysmometer (paw volume) ([2]; 120 min after CAR),water volume displacement digital plethysmometer (paw volume) ([2]; 180 min after CAR),water volume displacement digital plethysmometer (paw volume) ([2]; 240 min after CAR),"Paw volume compared to Ibuprofen (in words) ([2]; CAR-induced paw edema, both 5 mg/kg i.p.)"
"CC(C)Cc1ccc(C(C)C(=O)NNC(=N)NC(=N)N)cc1 (centres unmarked) [Biguanide of Ibuprofen, N-carbamimidoyl-2-(2-(4-isobutylphenyl)propanoyl) hydrazine-1-carboximidamide]",significant lowering of FBG levels,22.93 ± 0.97 mmol/L,6.38 ± 0.86 mmol/L,more marked reduction in FBG when compared to metformin,0.692 ± 0.012 mL,0.853 ± 0.016 mL,0.940 ± 0.013 mL,0.875 ± 0.021 mL,0.815 ± 0.015 mL,0.740 ± 0.018 mL,0.710 ± 0.011 mL,"significantly decreased paw volume, when compared to that of the Ibuprofen"
"CN(C)C(=N)N=C(N)N [metformin, 3-(diaminomethylidene)-1,1-dimethylguanidine, reference compound]",,22.77 ± 1.12 mmol/L,10.27 ± 1.21 mmol/L,,,,,,,,,

# From patent US20250066289A1, “BIGUANIDE DERIVATIVE OF IBUPROFEN AND PROCESS OF PREPARATION THEREOF” (BVDU's Poona College of Pharmacy, priority 2023, published 2025)
